# Patent US8207156B2, “Substituted pyrazoline compounds, their preparation and use as medicaments” (Laboratorios Del Dr. Esteve, S.A., priority 2005, dated 2012)
# Target: recombinant human cannabinoid 1 receptor (CB1) (Homo sapiens, UniProt P21554)
# Assay: In vitro determination of antagonism to CB1-receptor ([35S]GTPγS binding assay, CHO cell membranes)
# Type: biochemical
# Details: compound at 1 μM against agonist WIN 55,212-2 (3 nM to 3 μM); effect of Rimonabant (1 μM) defined as 100%
# Description: Chinese hamster ovary (CHO) cells stably expressing recombinant human cannabinoid 1 receptor (CB1) were cultured in nutrient mixture Ham's F 12 supplemented with 10% heat-inactivated fetal bovine serum, 2 mM L-glutamine, 50 U/ml penicillin, 50 U/ml streptomycin and 0.5 mg/ml geneticin. In order to obtain cells, culture flasks were washed twice with phosphate buffered saline and scraped. Then, cells were collected by centrifugation (200×g, 10 min) and stored dry at −80° C. Cells were homogenized in ice-cold 20 mM HEPES, 10 mM EDTA (pH 7.5) and centrifuged at 40,000×g for 15 min at 4° C. The membrane pellet was resuspended in 20 mM HEPES, 0.1 mM EDTA (pH 7.5) and centrifuged for 15 min at 4° C. The final membrane pellet was resuspended in 20 mM HEPES, 0.1 mM EDTA (pH 7.5), and divided in aliquots and stored at −80° C. until use.
# The reaction was performed in 96-well plates. Membranes (15 μg protein/well) were incubated for 60 min at 30° C. in buffer (50 mM HEPES, 100 mM KCl, 5 mM MgCl2,1 mM EDTA, 0.1% wt/vol bovine serum albumin, 5 μM GDP, saponin (10 μg/ml), 0.5 nM [^35S]GTPγS, pH 7.4) with compound at a final concentration of 1 μM in either the absence or presence of agonist WIN 55, 212-2 between 3 nM and 3 μM. The incubation was terminated by rapid filtration through Millipore Multiscreen glass fiber FB, and rinsed two-times with ice-cold assay buffer. Filter plates were dried and 30 μl of scintillation liquid was added. Radioactivity was determined using a Wallac Microbeta Trilux. Each experiment was performed at least in duplicate. A WIN 55, 212-2 dose-response experiment either alone or in the presence of Rimonabant (1 μM) was systematically performed.
# The average of basal [^35S]GTPγS binding was subtracted from all binding data. In order to compare the antagonism results from one screening campaign to another one, the difference between the maximal agonist effect of WIN 55, 212-2 alone, and the maximal antagonism effect due to WIN 55, 212-2 plus Rimonabant (1 μM) was defined as 100%.
# Chain of recombinant human cannabinoid 1 receptor (CB1) (P21554 whole entry): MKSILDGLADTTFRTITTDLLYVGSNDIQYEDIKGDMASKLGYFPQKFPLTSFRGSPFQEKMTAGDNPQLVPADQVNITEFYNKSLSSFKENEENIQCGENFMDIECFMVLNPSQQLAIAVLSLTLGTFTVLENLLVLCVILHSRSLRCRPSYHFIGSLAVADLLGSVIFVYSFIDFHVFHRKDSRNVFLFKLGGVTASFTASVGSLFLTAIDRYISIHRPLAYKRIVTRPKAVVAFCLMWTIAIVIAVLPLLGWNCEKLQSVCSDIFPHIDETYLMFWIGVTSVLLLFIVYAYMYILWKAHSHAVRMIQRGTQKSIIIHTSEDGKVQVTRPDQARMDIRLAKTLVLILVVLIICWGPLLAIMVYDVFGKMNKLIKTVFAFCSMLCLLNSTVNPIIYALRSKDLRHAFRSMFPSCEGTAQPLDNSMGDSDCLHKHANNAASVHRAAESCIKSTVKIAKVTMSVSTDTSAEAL
row,Antagonism [%],Structure (SMILES)
1,75,"O=C(NN1CCCC1)C1=NN(c2ccc(Cl)cc2Cl)C(c2ccc(Br)cc2)C1 (stereo not shown) [Example 61, 5-(4-Bromo-phenyl)-1-(2,4-dichloro-phenyl)-4,5-dihydro-1H-pyrazole-3-carboxylic acid pyrrolidin-1-ylamide]"
2,44,"O=C(C1=NN(c2ccc(Cl)cc2Cl)C(c2ccc(Cl)cc2)C1)N1CCc2sccc2C1 (stereo not shown) [Example 56, [5-(4-Chloro-phenyl)-1-(2,4-dichloro-phenyl)-4,5-dihydro-1H-pyrazol-3-yl]-(6,7-dihydro-4H-thieno[3,2-c]pyridin-5-yl)-methanone]"
3,54,"O=C(NC1CCC1)C1=NN(c2ccc(Cl)cc2Cl)C(c2ccc(Cl)cc2)C1 (stereo not shown) [Example 30, 5-(4-Chloro-phenyl)-1-(2,4-dichloro-phenyl)-4,5-dihydro-1H-pyrazole-3-carboxylic acid cyclobutylamide]"
4,47,"CC1(C)[C@@H]2CC[C@@]1(C)[C@@H](NC(=O)C1=NN(c3ccc(Cl)cc3Cl)C(c3ccc(Cl)cc3)C1)C2 (stereo partly shown) [Example 58, 5-(4-Chloro-phenyl)-1-(2,4-dichloro-phenyl)-4,5-dihydro-1H-pyrazole-3-carboxylic acid (1,7,7-trimethyl-bicyclo[2.2.1]hept-2-yl)-amide]"
5,46,"O=C(C1=NN(c2ccc(Cl)cc2Cl)C(c2ccc(Cl)cc2)C1)N1CCOCC1 (stereo not shown) [Example 54, [5-(4-Chloro-phenyl)-1-(2,4-dichloro-phenyl)-4,5-dihydro-1H-pyrazol-3-yl]-morpholin-4-yl-methanone]"
6,60,"O=C(NC1CCCCCCC1)C1=NN(c2ccc(Cl)cc2Cl)C(c2ccc(Cl)cc2)C1 (stereo not shown) [Example 34, 5-(4-Chloro-phenyl)-1-(2,4-dichloro-phenyl)-4,5-dihydro-1H-pyrazole-3-carboxylic acid cyclooctylamide]"
7,28,"CN(C(=O)C1=NN(c2ccc(Cl)cc2Cl)C(c2ccc(Cl)cc2)C1)C1CCCCC1 (stereo not shown) [Example 47, 5-(4-Chloro-phenyl)-1-(2,4-dichloro-phenyl)-4,5-dihydro-1H-pyrazole-3-carboxylic acid cyclohexyl-methyl-amide]"
8,52,"O=C(NN1CCN(C2CCCC2)CC1)C1=NN(c2ccc(Cl)cc2Cl)C(c2ccc(Cl)cc2)C1 (stereo not shown) [Example 26, 5-(4-Chloro-phenyl)-1-(2,4-dichloro-phenyl)-4,5-dihydro-1H-pyrazole-3-carboxylic acid (4-cyclopentyl-piperazin-1-yl)-amide]"
9,25,"CN1CCN(C(=O)C2=NN(c3ccc(Cl)cc3Cl)C(c3ccc(Cl)cc3)C2)CC1 (stereo not shown) [Example 43, [5-(4-Chloro-phenyl)-1-(2,4-dichloro-phenyl)-4,5-dihydro-1H-pyrazol-3-yl]-(4-methyl-piperazin-1-yl)-methanone]"
10,−5,"O=C(NC1CC1)C1=NN(c2ccc(Cl)cc2Cl)C(c2ccc(Cl)cc2)C1 (stereo not shown) [Example 36, 5-(4-Chloro-phenyl)-1-(2,4-dichloro-phenyl)-4,5-dihydro-1H-pyrazole-3-carboxylic acid cyclopropylamide]"
11,7,"O=C(NN1Cc2cccc3cccc(c23)C1)C1=NN(c2ccc(Cl)cc2Cl)C(c2ccc(Cl)cc2)C1 (stereo not shown) [Example 25, 5-(4-Chloro-phenyl)-1-(2,4-dichloro-phenyl)-4,5-dihydro-1H-pyrazole-3-carboxylic acid (1H,3H-benzo[de]isoquinolin-2-yl)-amide]"
12,63,"O=C(NN1CCc2ccccc21)C1=NN(c2ccc(Cl)cc2Cl)C(c2ccc(Cl)cc2)C1 (stereo not shown) [Example 28, 5-(4-Chloro-phenyl)-1-(2,4-dichloro-phenyl)-4,5-dihydro-1H-pyrazole-3-carboxylic acid (2,3-dihydro-indol-1-yl)-amide]"
13,53,"Cl.O=C(NN1CCOCC1)C1=NN(c2ccc(Cl)cc2Cl)C(c2ccc(Cl)cc2)C1 (stereo not shown) [Example 9, 5-(4-Chloro-phenyl)-1-(2,4-dichloro-phenyl)-4,5-dihydro-1H-pyrazole-3-carboxylic acid morpholin-4-ylamide hydrochloride]"
14,66,"O=C(C1=NN(c2ccc(Cl)cc2Cl)C(c2ccc(Cl)cc2)C1)N1CCN(C2CCCCC2)CC1 (stereo not shown) [Example 21, [5-(4-Chloro-phenyl)-1-(2,4-dichloro-phenyl)-4,5-dihydro-1H-pyrazol-3-yl]-(4-cyclohexyl-piperazin-1-yl)-methanone]"
15,18,"O=C(O)C1=NN(c2ccc(Cl)cc2Cl)C(c2ccc(Br)cc2)C1 (stereo not shown) [Example 128, 5-(4-Bromo-phenyl)-1-(2,4-dichloro-phenyl)-4,5-dihydro-1H-pyrazole-3-carboxylic acid]"
16,60,"CCC1CCC(C)N(C(=O)C2=NN(c3ccc(Cl)cc3Cl)C(c3ccc(Cl)cc3)C2)C1 (stereo not shown) [Example 59, [5-(4-Chloro-phenyl)-1-(2,4-dichloro-phenyl)-4,5-dihydro-1H-pyrazol-3-yl]-(5-ethyl-2-methyl-piperidin-1-yl)-methanone]"
17,30,"O=C(O)C1=NN(c2ccc(Cl)cc2Cl)C(c2ccc(F)cc2)C1 (stereo not shown) [Example 126, 1-(2,4-Dichloro-phenyl)-5-(4-fluoro-phenyl)-4,5-dihydro-1H-pyrazole-3-carboxylic acid]"
18,−13,"O=C(C1=NN(c2ccc(Cl)cc2Cl)C(c2ccc(Cl)cc2)C1)N1CCC(N2CCCCC2)CC1 (stereo not shown) [Example 42, [1,4′]Bipiperidinyl-1′-yl-[5-(4-chloro-phenyl)-1-(2,4-dichloro-phenyl)-4,5-dihydro-1H-pyrazol-3-yl]-methanone]"
19,67,"CC1CCCC(C)N1NC(=O)C1=NN(c2ccc(Cl)cc2Cl)C(c2ccc(Br)cc2)C1 (stereo not shown) [Example 62, 5-(4-Bromo-phenyl)-1-(2,4-dichloro-phenyl)-4,5-dihydro-1H-pyrazole-3-carboxylic acid (2,6-dimethyl-piperidin-1-yl)-amide]"
20,2,"CCN(C(=O)C1=NN(c2ccc(Cl)cc2Cl)C(c2ccc(Cl)cc2)C1)C1CCCCC1 (stereo not shown) [Example 33, 5-(4-Chloro-phenyl)-1-(2,4-dichloro-phenyl)-4,5-dihydro-1H-pyrazole-3-carboxylic acid cyclohexyl-ethyl-amide]"

row,Structure (SMILES),Antagonism [%]
1,"O=C(C1=NN(c2ccc(Cl)cc2Cl)C(c2ccc(Cl)cc2)C1)N1CCc2ccccc2C1 (stereo not shown) [Example 45, [5-(4-Chloro-phenyl)-1-(2,4-dichloro-phenyl)-4,5-dihydro-1H-pyrazol-3-yl]-(3,4-dihydro-1H-isoquinolin-2-yl)-methanone]",59
2,"O=C(C1=NN(c2ccc(Cl)cc2Cl)C(c2ccc(Cl)cc2)C1)N1CCC1 (stereo not shown) [Example 40, Azetidin-1-yl-[5-(4-chloro-phenyl)-1-(2,4-dichloro-phenyl)-4,5-dihydro-1H-pyrazol-3-yl]-methanone]",32
3,"COC(C)(C)[C@@H]1CCCN1NC(=O)C1=NN(c2ccc(Cl)cc2Cl)C(c2ccc(Cl)cc2)C1 (stereo partly shown) [Example 15, 5-(4-Chloro-phenyl)-1-(2,4-dichloro-phenyl)-4,5-dihydro-1H-pyrazole-3-carboxylic acid [2-(1-methoxy-1-methyl-ethyl)-pyrrolidin-1-yl]-amide]",6
4,"O=C(NC1CCCCCCCCCCC1)C1=NN(c2ccc(Cl)cc2Cl)C(c2ccc(Cl)cc2)C1 (stereo not shown) [Example 49, 5-(4-Chloro-phenyl)-1-(2,4-dichloro-phenyl)-4,5-dihydro-1H-pyrazole-3-carboxylic acid cyclododecylamide]",14
5,"CC(C)N(C(=O)C1=NN(c2ccc(Cl)cc2Cl)C(c2ccc(Cl)cc2)C1)C1CCCCC1 (stereo not shown) [Example 55, 5-(4-Chloro-phenyl)-1-(2,4-dichloro-phenyl)-4,5-dihydro-1H-pyrazole-3-carboxylic acid cyclohexyl-isopropyl-amide]",30
6,"CC(C)N(C(=O)C1=NN(c2ccc(Cl)cc2Cl)C(c2ccc(Cl)cc2)C1)C(C)C (stereo not shown) [Example 50, 5-(4-Chloro-phenyl)-1-(2,4-dichloro-phenyl)-4,5-dihydro-1H-pyrazole-3-carboxylic acid diisopropylamide]",18
7,"CCCCCCNC(=O)C1=NN(c2ccc(Cl)cc2Cl)C(c2ccc(Cl)cc2)C1 (stereo not shown) [Example 20, 5-(4-Chloro-phenyl)-1-(2,4-dichloro-phenyl)-4,5-dihydro-1H-pyrazole-3-carboxylic acid hexylamide]",61
8,"CC1CCCCN1C(=O)C1=NN(c2ccc(Cl)cc2Cl)C(c2ccc(Cl)cc2)C1 (stereo not shown) [Example 46, [5-(4-Chloro-phenyl)-1-(2,4-dichloro-phenyl)-4,5-dihydro-1H-pyrazol-3-yl]-(2-methyl-piperidin-1-yl)-methanone]",53
